Values quoted from earlier work in patent publication US10010080B2, “Process for the production of partially polymerized antimicrobial silanol quaternary ammonium compounds” (Indusco, Ltd., priority 2015, dated 2018).

Conditions: Dow Corning material safety data sheet

For `CO[Si](CCCCl)(OC)OC` [CPTMS, chloropropyptrimethoxy silane], the “time weighted average (TWA) for human exposure” value is given as 0.1 part per million.
